We go through 17 compounds from patent US7858072B2, “Stilbene derivatives and their use for binding and imaging amyloid plaques” (The Trustees of the University of Pennsylvania, priority 2004, dated 2010).

Read-outs that look alike come from different tables or passages of the source.

The term Kd denotes the constant that tells how readily two partners part at equilibrium. Usually Ki stands for a measure of affinity in units of concentration, obtained from inhibition or displacement.

The nature of data set [1]: Partition coefficient (1-octanol/buffer). The data set is classed as physicochemical. Conditions: 1-octanol / 0.1 M phosphate buffer, pH 7.4. The procedure: Partition coefficients were measured by mixing the [^18F]tracer with 3 g each of 1-octanol and buffer (0.1 M phosphate, pH 7.4) in a test tube. The test tube was vortexed for 3 min at room temperature, followed by centrifugation for 5 min. Two weighed samples (0.5 g each) from the 1-octanol and buffer layers were counted in a well counter. The partition coefficient was determined by calculating the ratio of cpm/g of 1-octanol to that of buffer. Samples from the 1-octanol layer were re-partitioned until consistent partitions of coefficient values were obtained (usually the 3rd or 4th partition). The measurement was done in triplicate and repeated three times.

The subject of data set [2] is AD cortical homogenates. Conditions: Kung et al. 2004, cited from earlier work.
The subject of data set [3] is Aβ plaques. The settings on record: cited from earlier work.
The nature of data set [4]: Organ distribution in normal mice after iv injection of [18F]tracers. The data set is classed as in vivo. The settings on record: ICR mice, [18F]tracer in 0.1% BSA. The method, then:
The organs of interest were removed and weighed, and the radioactivity was assayed for radioactivity content with an automatic gamma counter. The percentage dose per organ was calculated by a comparison of the tissue counts to suitably diluted aliquots of the injected material. Total activities of blood were calculated under the assumption that they were 7% of the total body weight. The % dose/g of samples was calculated by comparing the sample counts with the count of the diluted initial dose.

In data set [5] the target is Aβ plaques (postmortem AD brain homogenates) (Homo sapiens, UniProt P05067). Description: Binding assay: inhibition of [125I]IMPY binding in postmortem AD brain homogenates. The procedure: Postmortem brain tissues were obtained from AD patients at autopsy, and neuropathological diagnosis was confirmed by current criteria (NIA-Reagan Institute Consensus Group, 1997). Homogenates were then prepared from dissected gray matters from AD patients in phosphate buffered saline (PBS, pH 7.4) at the concentration of approximately 100 mg wet tissue/ml (motor-driven glass homogenizer with setting of 6 for 30 sec).
Binding assays were carried out in 12×75 mm borosilicate glass tubes. […] The mixture was incubated at 37° C. for 2 hr and the bound and the free radioactivity were separated by vacuum filtration through Whatman GF/B filters using a Brandel M-24R cell harvester followed by 2×3 ml washes of PBS at room temperature. Filters containing the bound ^125I ligand were assayed for radioactivity content in a gamma counter (Packard 5000) with 70% counting efficiency. […] The results of inhibition experiments were subjected to nonlinear regression analysis using EBDA by which Ki values were calculated.

The target in data set [6] is fibrillar Aβ aggregates (Homo sapiens, UniProt P05067). The settings on record: Mathis et al. 1997; read-out: inhibition constants (Ki) for binding to fibrillar Aβ aggregates; cited from earlier work.
Chain of fibrillar Aβ aggregates (P05067 672-711 limits assumed): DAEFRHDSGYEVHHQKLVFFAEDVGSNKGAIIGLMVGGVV

Chain of Aβ plaques (postmortem AD brain homogenates) (P05067 672-711 limits assumed): as above

Consider `CNc1ccc(C=Cc2ccc(OCCOCC[18F])cc2)cc1` [[^18F]12a, [^18F][4-(2-{4-[2-(2-Fluoro-ethoxy)-ethoxy]-phenyl}-vinyl)-phenyl]-methyl-amine], for which the “logp value (lipophilicity)” value in data set [1] is 2.52.

As for `[3H]N(c1ccc(/C=C/c2ccc(O)cc2)cc1)C([3H])([3H])[3H]` [[^3H]SB-13], the binding capacity in data set [2] (AD cortical homogenates) is listed as 14-45 pmol/mg protein.

As to `[11CH3]Nc1ccc(/C=C/c2ccc(O)cc2)cc1` [[^11C]SB-13], the “accumulation in the frontal cortex” value in data set [3] (mild to moderate AD patients, not in age-matched control subjects) was “high accumulation”.

For `CNc1ccc(/C=C/c2ccc(O)cc2)cc1` [[^3H]SB-13], the Kd in data set [2] is 2.4 ± 0.2 nM.

On to `CNc1ccc(C=Cc2ccc(OCCOCCOCCOCCOCCF)cc2)cc1` [Compound 12d, [4-(2-{4-[2-(2-{2-[2-(2-Fluoro-ethoxy)-ethoxy]-ethoxy}-ethoxy)-ethoxy]-phenyl}-vinyl)-phenyl]-methyl-amine], for which the Blood in data set [4] (2 min) was determined as 4.99 ± 0.38 % dose/g; in data set [4] (30 min), 4.66 ± 0.06 % dose/g; in data set [4] (1 hr) it was 2.89 ± 0.11 % dose/g; in data set [4] (2 hr), 2.59 ± 0.18 % dose/g. Further, the Bone in data set [4] (2 min) was 2.24 ± 0.21 % dose/g; in data set [4] (30 min), 2.29 ± 0.21 % dose/g; in data set [4] (1 hr), 1.66 ± 0.01 % dose/g; in data set [4] (2 hr), 2.35 ± 0.27 % dose/g. Further, the Brain is reported as 7.30 ± 1.05 % dose/g in data set [4] (2 min), 2.43 ± 0.03 % dose/g in data set [4] (30 min), 1.77 ± 0.11 % dose/g in data set [4] (1 hr) and 1.62 ± 0.03 % dose/g in data set [4] (2 hr). In data set [5] (read-out: Ki ± SEM, X = F), the Ki came to 6 ± 0.8 nM.

Regarding `[11CH3]Nc1ccc(-c2nc3ccc(O)cc3s2)cc1` [[^11C]6-OH-BTA-1], the “retention in the cortex” value in data set [3] (patients with diagnosed mild AD) was “marked retention”.

Consider `CNc1ccc(C=Cc2ccc(OCCOCCOCCOCCOCC[18F])cc2)cc1` [[^18F]12d], for which, in data set [1], the “logp value (lipophilicity)” value was 2.28.

With `CNc1ccc(C=Cc2ccc(OCCOCCF)cc2)cc1` [Compound 12a, [4-(2-{4-[2-(2-Fluoro-ethoxy)-ethoxy]-phenyl}-vinyl)-phenyl]-methyl-amine], the Blood in data set [4] (2 min) was found to be 2.64 ± 0.55 % dose/g; in data set [4] (30 min) it was 2.42 ± 0.27 % dose/g; in data set [4] (1 hr), 2.04 ± 0.16 % dose/g; in data set [4] (2 hr), 2.77 ± 0.63 % dose/g. The Bone in data set [4] (2 min) is listed as 1.89 ± 0.25 % dose/g; in data set [4] (30 min) it was 1.40 ± 0.11 % dose/g; in data set [4] (1 hr) it was 1.71 ± 0.23 % dose/g; in data set [4] (2 hr) it was 2.88 ± 0.07 % dose/g. Besides, the Brain amounted to 8.14 ± 2.03 % dose/g in data set [4] (2 min), 3.00 ± 0.16 % dose/g in data set [4] (30 min), 2.60 ± 0.22 % dose/g in data set [4] (1 hr) and 2.14 ± 0.06 % dose/g in data set [4] (2 hr). The Ki in data set [5] (read-out: Ki ± SEM, X = F) is 2.9 ± 0.2 nM.

Regarding `CNc1ccc(C=Cc2ccc(OCCOCCOCCOCCOCCO)cc2)cc1` [Compound 3d, 2-(2-{2-[2-(2-{4-[2-(4-Methylamino-phenyl)-vinyl]-phenoxy}-ethoxy)-ethoxy]-ethoxy}-ethoxy)-ethanol], the Ki in data set [5] (read-out: Ki ± SEM, X = OH) stood at 5.2 ± 0.2 nM.

As to `O=C(O)c1cc(/N=N/c2ccc(-c3ccc(/N=N/c4ccc(O)c(C(=O)O)c4)cc3)cc2)ccc1O` [CG, chrysamine-G], in data set [6], the Ki was 370 nM.

Take `CNc1ccc(C=Cc2ccc(OCCOCCOCCOCC[18F])cc2)cc1` [[^18F]12c]: in data set [1], the “logp value (lipophilicity)” value is given as 2.05.

For the compound `CNc1ccc(C=Cc2ccc(OCCOCCOCCO)cc2)cc1` [Compound 3b, 2-[-2-(2-{4-[2-(4-Methylamino-phenyl)-vinyl]-phenoxy}-ethoxy)-ethoxy]-ethanol], the inhibition constant Ki in data set [5] (read-out: Ki ± SEM, X = OH) stood at 2.8 ± 0.2 nM.

Consider `CNc1ccc(C=Cc2ccc(OCCOCCOCCOCCO)cc2)cc1` [Compound 3c, 2-{2-[2-(2-{4-[2-(4-Methylamino-phenyl)-vinyl]-phenoxy}-ethoxy)-ethoxy]-ethoxy}-ethanol], for which the inhibition constant (Ki) in data set [5] (read-out: Ki ± SEM, X = OH) was found to be 4.6 ± 0.2 nM.

Turning to `CNc1ccc(C=Cc2ccc(OCCOCCOCC[18F])cc2)cc1` [[^18F]12b, [^18F]{4-[2-(4-{2-[2-(2-Fluoro-ethoxy)-ethoxy]-ethoxy}-phenyl)-vinyl]-phenyl}-methyl-amine], the “logp value (lipophilicity)” value in data set [1] turned out to be 2.41. Further, in data set [4] (2 hr), the Bone was 2.74 % dose/g.

For the compound `CNc1ccc(C=Cc2ccc(OCCOCCO)cc2)cc1` [Compound 3a, 2-(2-{4-[2-(4-Methylamino-phenyl)-vinyl]-phenoxy}-ethoxy)-ethanol], the inhibitory constant (Ki) in data set [5] (read-out: Ki ± SEM, X = OH) was found to be 5.2 ± 0.4 nM.

For the compound `CNc1ccc(C=Cc2ccc(OCCOCCOCCOCCF)cc2)cc1` [Compound 12c, (4-{2-[4-(2-{2-[2-(2-Fluoro-ethoxy)-ethoxy]-ethoxy}-ethoxy)-phenyl]-vinyl}-phenyl)-methyl-amine], the Blood in data set [4] (2 min) is given as 3.22 ± 0.20 % dose/g; in data set [4] (30 min), 1.88 ± 0.08 % dose/g; in data set [4] (1 hr), 1.81 ± 0.48 % dose/g; in data set [4] (2 hr), 1.60 ± 0.12 % dose/g. Also, the Bone amounted to 2.31 ± 0.12 % dose/g in data set [4] (2 min), 1.00 ± 0.02 % dose/g in data set [4] (30 min), 0.98 ± 0.27 % dose/g in data set [4] (1 hr) and 1.50 ± 0.05 % dose/g in data set [4] (2 hr). Also, the Brain is listed as 6.59 ± 0.19 % dose/g in data set [4] (2 min), 1.27 ± 0.03 % dose/g in data set [4] (30 min), 1.20 ± 0.10 % dose/g in data set [4] (1 hr) and 1.21 ± 0.06 % dose/g in data set [4] (2 hr).

As to `CC(=C(C#N)C#N)c1ccc2cc(N(C)CCF)ccc2c1` [[^18F]FDDNP], the “relative residence time of the brain region of interest versus the pons” value in data set [3] (AD patients versus comparison subjects, PET) was “significantly higher in AD patients”.
